Experimental findings from patent US12474353B2, “Methods and materials for assessing and treating obesity” (Mayo Foundation for Medical Education and Research, priority 2017, dated 2025) are described below.

The conditions of this data set: human, in vivo. The protocol:
The applicability of obesity-related phenotypes as actionable biomarkers was tested in three pilot, proof of concept studies (see, e.g., Acosta et al., 2015 Gastroenterology 148:537-546; Acosta et al., 2015 Physiol Rep 3; and Halawi et al., 2017 Lancet Gastroenterol Hepatol 2:890-899). First, in a single-center, randomized, parallel-group, double-blind, placebo-controlled, 14-day study, the effects of Phentermine-topiramate-ER (PhenTop) (7.5/46 mg, orally, daily) on gastric emptying (GE) and volume, satiation, satiety, and fasting and postprandial GI hormones was evaluated in 24 obese adults. […] Subsequently, in a prospective, NIH-funded, randomized, placebo controlled clinical trial to study the effects of liraglutide 3 mg, SQ, over 16 weeks on obesity phenotypes and weight in 40 obese patients. […]
A prospective, randomized clinical trial with liraglutide, a long-acting GLP-1 receptor agonist, was completed. […] At baseline and after 16 weeks' treatment, weight, gastric emptying of solids (GES, primary endpoint), large fasting gastric volumes, satiation, and satiety were measured. GES was also measured at 5 weeks. […] Effect of liraglutide on GES T1/2 at 5 and 16 weeks in the liraglutide group was analyzed by paired t-test. Seventeen participants were analyzed in the liraglutide group (n=19 randomized) and 18 in the placebo group (n=21 randomized).

In the case of `CCCCCCCCCCCCCCCC(=O)N[C@@H](CCC(=O)NCCCC[C@H](NC(=O)[C@H](C)NC(=O)[C@H](C)NC(=O)[C@H](CCC(N)=O)NC(=O)CNC(=O)[C@H](CCC(=O)O)NC(=O)[C@H](CC(C)C)NC(=O)[C@H](Cc1ccc(O)cc1)NC(=O)[C@H](CO)NC(=O)[C@H](CO)NC(=O)[C@@H](NC(=O)[C@H](CC(=O)O)NC(=O)[C@H](CO)NC(=O)[C@@H](NC(=O)[C@H](Cc1ccccc1)NC(=O)[C@@H](NC(=O)CNC(=O)[C@H](CCC(=O)O)NC(=O)[C@H](C)NC(=O)[C@@H](N)Cc1cnc[nH]1)[C@@H](C)O)[C@@H](C)O)C(C)C)C(=O)N[C@@H](CCC(=O)O)C(=O)N[C@@H](Cc1ccccc1)C(=O)N[C@H](C(=O)N[C@@H](C)C(=O)N[C@@H](Cc1c[nH]c2ccccc12)C(=O)N[C@@H](CC(C)C)C(=O)N[C@H](C(=O)N[C@@H](CCCNC(=N)N)C(=O)NCC(=O)N[C@@H](CCCNC(=N)N)C(=O)NCC(=O)O)C(C)C)[C@@H](C)CC)C(=O)O` [liraglutide], the “Nausea (most common adverse event)” value is given as 63.2%.
